Test results from ChEMBL document CHEMBL1125207, “Monoterpenic fragment analogues of aplasmomycin as potential antimalarial” (1991).

Columns and labels:
Assay type in all cases: functional
Plasmodium berghei [1] = assay: In vivo antimalarial activity against Plasmodium berghei in mice (Mus musculus) at 40 mg/kg dose as mean survival time
Plasmodium berghei [2] = assay: In vivo antimalarial activity against Plasmodium berghei in mice (Mus musculus) at 160 mg/kg dose as mean survival time of mice (Mus musculus) after 60 days
Plasmodium berghei [3] = assay: In vivo antimalarial activity against Plasmodium berghei in mice (Mus musculus) at 80 mg/kg dose as mean survival time
Plasmodium berghei [4] = assay: In vivo antimalarial activity against Plasmodium berghei in mice (Mus musculus) at 160 mg/kg dose as mean survival time
Plasmodium berghei [5] = assay: In vivo antimalarial activity against Plasmodium berghei in mice (Mus musculus) at 20 mg/kg dose as mean survival time
Plasmodium berghei [6] = assay: In vivo antimalarial activity against Plasmodium berghei in mice (Mus musculus) at 20 mg/kg as mean survival time
Plasmodium berghei [7] = assay: In vivo antimalarial activity against Plasmodium berghei in mice (Mus musculus) at 40 mg/kg dose as mean survival time after 60 days

Structure (SMILES) | Mean survival time (Plasmodium berghei [1]) [days] | Mean survival time (Plasmodium berghei [2]) [days] | Mean survival time (Plasmodium berghei [3]) [days] | Mean survival time (Plasmodium berghei [4]) [days] | Mean survival time (Plasmodium berghei [5]) [days] | Mean survival time (Plasmodium berghei [6]) [days] | Mean survival time (Plasmodium berghei [7]) [days]
C[C@@H]1CC[C@H]2[C@@H](C)CO[B-]3(OC[C@H](C)[C@@H]4CC[C@@H](C)C[C@H]4O3)O[C@@H]2C1.[Na+] (stereo partly drawn) | 9.6 | 28.6 | 10.8 | 12.6 | 9 |  | 
CCOC(=O)/C=C/CC(C)CCC=C(C)C (stereo not drawn) | 8.2 | 29.6 | 10.4 | 12.4 | 6 |  | 
CCOC(=O)/C=C/C=C(\C)CCC1OC1(C)C (stereo not drawn) | 8.6 | 30.4 | 9.2 | 12.6 | 7.8 |  | 
C[C@@H]1CC[C@@H]([C@@H](C)CO)[C@H](O)C1 | 6.2 |  | 7 | 8.2 |  | 5.4 | 
CCOC(=O)C(O)C1OC(C(C)(C)O)CCC1C (stereo not drawn) | 7.2 |  | 8.4 | 11.4 |  | 6.4 | 
CCOC(=O)/C=C/C=C(C)C | 6 |  | 7.4 | 8.8 | 5.4 |  | 
CCOC(=O)/C=C/C(C)CCC=C(C)C (stereo not drawn) | 6 |  | 7.2 | 8 | 5.4 |  | 
C[C@@H]1CC[C@H]2[C@@H](C)C(=O)O[C@@H]3O[C@@]4(C)CC[C@@H]1[C@]32OO4 [ARTEMISININ] |  |  |  |  | 10.8 |  | 30.6
